Here are results for one molecule from paper PMC4522657, “Identification of a DYRK1A Inhibitor that Induces Degradation of the Target Kinase using Co-chaperone CDC37 fused with Luciferase nanoKAZ” (Scientific Reports, 2015).

For one test, the target named is DYRK1A (Homo sapiens, UniProt Q13627). The test is described as follows: Kinase panel, CaNDY 1 µM. The test is classed as biochemical. Also noted: purchased Carna Biosciences. The text has this:
Detailed information on the assay conditions is available on the website of Carna Biosciences (http://www.carnabio.com/english/index.html; Kobe, Japan). In brief, full-length human recombinant kinases were expressed using a baculovirus expression system as amino-terminal GST-fusion proteins, and purified by glutathione-Sepharose chromatography. The GenBank accession numbers of DYRK1A, DYRK1B, DYRK2, and DYRK3 were NP_001387.2, NP_004705.1, NP_003574.1, and NP_003573.2. Kinase activities were evaluated by Off-chip Mobility Shift Assay after reaction of 1 μM of the substrate DYRKtide-F with ATP (25 μM for DYRK1A, 50 μM for DYRK1B, 10 μM for DYRK2, and 5 μM for DYRK3). For each compound, a DMSO solution was diluted in assay buffer to yield a final concentration of 1% DMSO. After incubation for one hour at room temperature, substrate phosphorylation was analyzed by electrophoretic separation of the substrate and products using a Caliper LC3000 platform (Caliper Life Sciences, Mountain View, CA, USA). The phosphorylated product (P)/(P + substrate) ratio was calculated at each concentration of each small molecule and the percent inhibition was expressed relative to a control assay in the absence of the small molecule. […] The IC50 of each compound was calculated by interpolation on a log-concentration-response curve fitted with a four-parameter logistic equation.
All kinase assays were carried out at Carna Biosciences. The inhibitory map was made with Kinome Render[36].

Another test has as its target T1, MAP2K2_Cascade (Homo sapiens, UniProt P36507).
T1 construct: purchased Carna Biosciences
The test is described as follows: Kinase panel, CaNDY 1 µM. The test is classed as biochemical. Particulars: CaNDY 1 µM relative to DMSO.

The next test concerns the target T2, INSR (Homo sapiens, UniProt P06213).
T2 construct: purchased Carna Biosciences
The test is described as follows: Kinase panel, CaNDY 1 µM. The format is biochemical. Particulars: CaNDY 1 µM relative to DMSO.

In a further test the target is T3, Erk1 (Homo sapiens, UniProt P27361).
T3 construct: purchased Carna Biosciences
As to the kind of experiment: Kinase panel, CaNDY 1 µM. The test is classed as biochemical. Particulars: CaNDY 1 µM relative to DMSO.

In the next test the target is T4, FGFR3 (Homo sapiens, UniProt P22607).
T4 construct: purchased Carna Biosciences
As to the kind of experiment: Kinase panel, CaNDY 1 µM. The test is classed as biochemical. Particulars: CaNDY 1 µM relative to DMSO.

The next test addresses T5, NDR2 (Homo sapiens, UniProt Q9Y2H1).
T5 construct: purchased Carna Biosciences
The test is described as follows: Kinase panel, CaNDY 1 µM. The test is classed as biochemical. Particulars: CaNDY 1 µM relative to DMSO.

The next test has as its target T6, PLK1 (Homo sapiens, UniProt P53350).
T6 construct: purchased Carna Biosciences
As to the kind of experiment: Kinase panel, CaNDY 1 µM. Particulars: CaNDY 1 µM relative to DMSO. The test is classed as biochemical.

The target of another test is T7, FGFR4(V550L) (Homo sapiens, UniProt P22455, V550L).
T7 construct: purchased Carna Biosciences
As to the kind of experiment: Kinase panel, CaNDY 1 µM. The format is biochemical. Particulars: CaNDY 1 µM relative to DMSO.

The target of another test is T8, CK2α1/β (Homo sapiens, UniProt P68400).
T8 construct: purchased Carna Biosciences
As to the kind of experiment: Kinase panel, CaNDY 1 µM. The test is classed as biochemical.

The target in another test is T9, IRR (Homo sapiens, UniProt P14616).
T9 construct: purchased Carna Biosciences
As to the kind of experiment: Kinase panel, CaNDY 1 µM. Particulars: CaNDY 1 µM relative to DMSO. The test is classed as biochemical.

A further test concerns the target T10, FER (Homo sapiens, UniProt P16591).
T10 construct: purchased Carna Biosciences
The test is described as follows: Kinase panel, CaNDY 1 µM. The test is classed as biochemical. Particulars: CaNDY 1 µM relative to DMSO.

The next test concerns the target T11, PIM2 (Homo sapiens, UniProt Q9P1W9).
T11 construct: purchased Carna Biosciences
The test is described as follows: Kinase panel, CaNDY 1 µM. The test is classed as biochemical. Particulars: CaNDY 1 µM relative to DMSO.

For a further test, the target named is T12, FGFR4 (Homo sapiens, UniProt P22455).
T12 construct: purchased Carna Biosciences
The test is described as follows: Kinase panel, CaNDY 1 µM. The test is classed as biochemical. Particulars: CaNDY 1 µM relative to DMSO.

A further test concerns the target T13, MAP3K1_Cascade (Homo sapiens, UniProt Q13233).
T13 construct: purchased Carna Biosciences
The test is described as follows: Kinase panel, CaNDY 1 µM. The format is biochemical. Particulars: CaNDY 1 µM relative to DMSO.

The target of another test is T14, IRAK1 (Homo sapiens, UniProt P51617).
T14 construct: purchased Carna Biosciences
The test is described as follows: Kinase panel, CaNDY 1 µM. The format is biochemical. Particulars: CaNDY 1 µM relative to DMSO.

A further test addresses T15, MAP2K7_Cascade (Homo sapiens, UniProt O14733).
T15 construct: purchased Carna Biosciences
The test is described as follows: Kinase panel, CaNDY 1 µM. The test is classed as biochemical. Particulars: CaNDY 1 µM relative to DMSO.

A further test addresses T16, PKCα (Homo sapiens, UniProt P17252).
T16 construct: purchased Carna Biosciences
The test is described as follows: Kinase panel, CaNDY 1 µM. The test is classed as biochemical. Particulars: CaNDY 1 µM relative to DMSO.

A further test deals with T17, PAK5 (Homo sapiens, UniProt Q9P286).
T17 construct: purchased Carna Biosciences
The test is described as follows: Kinase panel, CaNDY 1 µM. The format is biochemical. Particulars: CaNDY 1 µM relative to DMSO.

Another test has as its target T18, endogenous DYRK1A (Homo sapiens, UniProt Q13627).
T18 construct: endogenous in cells; host or cells: HEK293
As to the kind of experiment: Western blot of endogenous DYRK1A protein in HEK293 cells. The test is classed as cell-based. Particulars: CaNDY 2 μM, 4 days. How it is done:
We investigated whether CaNDY destabilizes DYRK1A as ganetespib does. […] Next we examined whether CaNDY decreased endogenous DYRK1A protein. HEK293 cells were cultured for 0–4 days with CaNDY (2 μM) and then subjected to SDS-PAGE followed by Western blot analysis using antibodies against DYRK1A and GAPDH. […] The treated cells were also subjected to reverse transcription followed by quantitative PCR analysis.
Western blot analysis was performed using the antibodies described above. In brief, total cell lysates were separated by SDS-PAGE (5–20% gels; ATTO, Tokyo, Japan) under reducing conditions and then transferred to a PVDF membrane (PALL, SP, Brazil). Antibody reactions were performed with Can Get Signal® Immunoreaction Enhancer Solution (Toyobo). Peroxidase activities on the membrane were visualized with ECL Western Blotting Detection Reagents (GE Healthcare) or ImmunoStar® LD (Wako Pure Chemical Industries, Osaka, Japan), and a ChemiDoc^TM MP Imaging System (Bio-Rad, Hercules, CA, USA).
For orientation: In western blotting, separated proteins are transferred to a membrane and probed.

In the next test the target is T19, RSK4 (Homo sapiens, UniProt Q9UK32).
T19 construct: purchased Carna Biosciences
The test is described as follows: Kinase panel, CaNDY 1 µM. The test is classed as biochemical. Particulars: CaNDY 1 µM relative to DMSO.

T8 sequence (P68400 whole entry): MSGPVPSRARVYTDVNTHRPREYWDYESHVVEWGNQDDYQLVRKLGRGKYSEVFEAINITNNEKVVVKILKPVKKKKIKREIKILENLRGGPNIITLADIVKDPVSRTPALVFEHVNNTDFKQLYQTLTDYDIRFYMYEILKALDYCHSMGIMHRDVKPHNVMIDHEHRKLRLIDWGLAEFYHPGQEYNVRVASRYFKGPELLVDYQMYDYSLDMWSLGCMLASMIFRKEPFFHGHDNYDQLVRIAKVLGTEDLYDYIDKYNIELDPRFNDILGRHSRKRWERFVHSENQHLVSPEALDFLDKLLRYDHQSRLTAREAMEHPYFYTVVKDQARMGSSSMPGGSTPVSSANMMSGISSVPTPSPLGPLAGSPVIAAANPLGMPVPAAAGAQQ
T8 sequence (P67870 whole entry partner): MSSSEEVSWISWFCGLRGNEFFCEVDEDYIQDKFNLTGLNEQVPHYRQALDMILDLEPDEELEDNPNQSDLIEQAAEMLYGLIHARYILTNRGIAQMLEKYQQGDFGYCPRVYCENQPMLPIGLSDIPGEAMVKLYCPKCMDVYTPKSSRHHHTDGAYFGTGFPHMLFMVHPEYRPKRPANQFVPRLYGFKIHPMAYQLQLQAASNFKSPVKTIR
T19 sequence (Q9UK32 whole entry): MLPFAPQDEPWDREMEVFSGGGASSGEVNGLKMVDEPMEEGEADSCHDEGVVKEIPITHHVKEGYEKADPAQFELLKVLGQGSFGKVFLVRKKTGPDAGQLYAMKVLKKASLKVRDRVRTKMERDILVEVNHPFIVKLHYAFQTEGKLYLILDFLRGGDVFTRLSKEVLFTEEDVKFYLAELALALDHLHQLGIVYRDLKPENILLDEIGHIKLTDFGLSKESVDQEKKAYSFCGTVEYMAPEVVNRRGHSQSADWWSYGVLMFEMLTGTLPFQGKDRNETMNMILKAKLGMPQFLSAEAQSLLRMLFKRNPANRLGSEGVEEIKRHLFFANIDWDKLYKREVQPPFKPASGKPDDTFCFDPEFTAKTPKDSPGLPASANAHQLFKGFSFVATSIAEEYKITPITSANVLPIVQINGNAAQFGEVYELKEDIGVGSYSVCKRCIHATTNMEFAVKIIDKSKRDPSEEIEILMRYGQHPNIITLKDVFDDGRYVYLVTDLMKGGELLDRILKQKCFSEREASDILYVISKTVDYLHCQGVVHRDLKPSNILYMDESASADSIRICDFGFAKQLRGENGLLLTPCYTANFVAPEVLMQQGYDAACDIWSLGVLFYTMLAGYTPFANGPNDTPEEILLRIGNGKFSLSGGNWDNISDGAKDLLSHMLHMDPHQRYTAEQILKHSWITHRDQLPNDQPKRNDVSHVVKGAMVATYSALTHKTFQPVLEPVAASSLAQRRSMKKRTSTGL
T5 sequence (Q9Y2H1 whole entry): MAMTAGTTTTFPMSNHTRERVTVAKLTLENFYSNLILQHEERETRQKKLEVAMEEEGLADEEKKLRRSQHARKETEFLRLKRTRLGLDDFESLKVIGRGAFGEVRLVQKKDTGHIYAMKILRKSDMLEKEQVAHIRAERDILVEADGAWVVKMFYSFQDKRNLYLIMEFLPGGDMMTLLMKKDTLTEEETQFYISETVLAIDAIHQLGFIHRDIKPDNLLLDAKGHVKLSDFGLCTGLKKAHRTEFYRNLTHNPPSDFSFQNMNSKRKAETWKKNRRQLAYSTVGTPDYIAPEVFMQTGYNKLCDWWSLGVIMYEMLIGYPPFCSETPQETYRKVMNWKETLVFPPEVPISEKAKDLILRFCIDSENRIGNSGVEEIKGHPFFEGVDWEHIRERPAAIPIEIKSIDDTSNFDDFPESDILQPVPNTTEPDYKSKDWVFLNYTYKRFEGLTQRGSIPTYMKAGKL
T6 sequence (P53350 whole entry): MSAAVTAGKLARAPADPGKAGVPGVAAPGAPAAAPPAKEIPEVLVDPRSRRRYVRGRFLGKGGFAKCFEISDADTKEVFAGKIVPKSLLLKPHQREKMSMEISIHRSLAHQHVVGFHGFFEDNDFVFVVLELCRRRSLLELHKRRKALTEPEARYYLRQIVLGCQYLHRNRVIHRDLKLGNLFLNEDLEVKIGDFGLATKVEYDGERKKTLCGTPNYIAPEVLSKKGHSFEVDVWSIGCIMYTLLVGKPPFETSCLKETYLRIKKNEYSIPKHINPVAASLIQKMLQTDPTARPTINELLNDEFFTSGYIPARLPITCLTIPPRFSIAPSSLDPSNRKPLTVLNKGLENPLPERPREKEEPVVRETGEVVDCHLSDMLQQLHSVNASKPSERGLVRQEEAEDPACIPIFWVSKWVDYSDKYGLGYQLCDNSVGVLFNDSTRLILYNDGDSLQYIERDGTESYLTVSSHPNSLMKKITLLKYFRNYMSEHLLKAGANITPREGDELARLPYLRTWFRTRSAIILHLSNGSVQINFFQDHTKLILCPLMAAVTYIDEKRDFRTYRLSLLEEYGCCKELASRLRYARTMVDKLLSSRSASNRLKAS
T9 sequence (P14616 27-1297): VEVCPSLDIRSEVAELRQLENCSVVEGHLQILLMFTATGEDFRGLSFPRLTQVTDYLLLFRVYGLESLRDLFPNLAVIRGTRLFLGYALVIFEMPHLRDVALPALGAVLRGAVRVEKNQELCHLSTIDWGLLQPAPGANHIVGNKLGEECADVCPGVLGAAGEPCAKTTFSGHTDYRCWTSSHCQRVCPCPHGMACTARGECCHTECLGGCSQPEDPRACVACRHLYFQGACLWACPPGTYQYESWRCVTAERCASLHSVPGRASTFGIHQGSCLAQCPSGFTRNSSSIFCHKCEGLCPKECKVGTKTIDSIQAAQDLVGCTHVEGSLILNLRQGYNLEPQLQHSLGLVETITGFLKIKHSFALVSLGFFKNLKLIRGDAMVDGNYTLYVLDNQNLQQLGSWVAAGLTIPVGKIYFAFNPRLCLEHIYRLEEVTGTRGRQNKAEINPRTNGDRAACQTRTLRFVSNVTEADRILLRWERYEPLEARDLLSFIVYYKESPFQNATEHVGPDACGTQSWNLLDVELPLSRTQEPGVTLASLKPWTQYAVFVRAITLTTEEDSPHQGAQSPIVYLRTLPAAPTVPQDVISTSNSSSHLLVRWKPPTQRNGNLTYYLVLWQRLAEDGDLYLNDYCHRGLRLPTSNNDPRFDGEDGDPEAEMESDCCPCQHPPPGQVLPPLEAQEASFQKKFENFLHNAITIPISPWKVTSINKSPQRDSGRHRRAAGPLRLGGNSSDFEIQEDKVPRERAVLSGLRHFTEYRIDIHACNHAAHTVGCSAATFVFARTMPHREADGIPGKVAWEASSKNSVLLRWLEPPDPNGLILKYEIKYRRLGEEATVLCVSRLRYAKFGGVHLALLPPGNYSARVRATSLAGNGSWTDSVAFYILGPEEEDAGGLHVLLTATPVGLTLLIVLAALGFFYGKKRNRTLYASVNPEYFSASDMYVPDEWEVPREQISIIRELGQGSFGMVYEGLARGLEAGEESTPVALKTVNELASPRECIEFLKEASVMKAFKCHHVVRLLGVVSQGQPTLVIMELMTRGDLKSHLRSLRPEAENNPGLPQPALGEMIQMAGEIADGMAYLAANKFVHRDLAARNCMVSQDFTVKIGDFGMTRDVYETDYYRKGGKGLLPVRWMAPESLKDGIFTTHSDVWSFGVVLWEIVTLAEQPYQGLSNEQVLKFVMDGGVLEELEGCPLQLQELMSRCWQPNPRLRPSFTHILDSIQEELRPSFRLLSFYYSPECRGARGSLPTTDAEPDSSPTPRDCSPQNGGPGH
T11 sequence (Q9P1W9 whole entry): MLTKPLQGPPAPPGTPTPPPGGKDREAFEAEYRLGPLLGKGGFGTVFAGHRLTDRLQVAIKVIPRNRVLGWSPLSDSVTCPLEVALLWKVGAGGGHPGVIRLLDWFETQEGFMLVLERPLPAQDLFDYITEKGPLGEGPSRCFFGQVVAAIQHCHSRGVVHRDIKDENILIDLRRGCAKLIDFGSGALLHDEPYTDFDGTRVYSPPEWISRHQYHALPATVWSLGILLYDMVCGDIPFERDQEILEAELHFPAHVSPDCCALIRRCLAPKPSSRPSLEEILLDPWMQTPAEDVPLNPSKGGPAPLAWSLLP

Usually inhibition stands for how much of the control response was suppressed. As usually defined, the remaining activity is the signal under treatment as a percentage of the control signal. Consider `[H]/N=C1/NC(=O)C(=Cc2ccc3c(c2)CCO3)S1` [CaNDY, (Z)-5-[(2,3-dihydrobenzofuran-5-yl)methylene]-2-iminothiazolidin-4-one], for which the inhibition at 1 µM on DYRK1A (1 μM CaNDY, read-out: percentage inhibition) was greater than 90%; on CK2α1/β (CK2α, 1 μM CaNDY, read-out: percentage inhibition) it was 65%. Further, the remaining activity at 1 µM at DYRK1A (CaNDY 1 µM relative to DMSO) is 0.9%; at MAP2K2_Cascade it was 94.7%; on INSR it was 103%; at Erk1 it was 96.2%; on FGFR3, 104%; on NDR2 it was 91.9%. Moreover, the remaining activity at 1 µM at PLK1 turned out to be 99.2%; at FGFR4(V550L) it was 105%; at CK2α1/β (CK2α1/β, CaNDY 1 µM relative to DMSO) it was 34.7%; at IRR, 103%; on FER, 98.6%; on PIM2, 71.6%. For the same molecule, the remaining activity at 1 µM on FGFR4 is 107%; on MAP3K1_Cascade, 99%; at IRAK1 it was 87.4%; at PKCα, 82.4%; on PAK5, 97.5%. Moreover, the “%Activity” value at MAP2K7_Cascade came out at 101.7%; on RSK4, 94.6%. Also, on endogenous DYRK1A, the “accumulation of endogenous DYRK1A” value is “prevented accumulation of endogenous DYRK1A”. Further, the “protein expression of DYRK1A (reassessed)” value at endogenous DYRK1A (Fig. 7d) was “decreased expression”.
